Biological target: T1, glucocerebrosidase (GC; Cerezyme, recombinant WT GC) (Homo sapiens, UniProt P04062)
T1 sequence (P04062 40-536): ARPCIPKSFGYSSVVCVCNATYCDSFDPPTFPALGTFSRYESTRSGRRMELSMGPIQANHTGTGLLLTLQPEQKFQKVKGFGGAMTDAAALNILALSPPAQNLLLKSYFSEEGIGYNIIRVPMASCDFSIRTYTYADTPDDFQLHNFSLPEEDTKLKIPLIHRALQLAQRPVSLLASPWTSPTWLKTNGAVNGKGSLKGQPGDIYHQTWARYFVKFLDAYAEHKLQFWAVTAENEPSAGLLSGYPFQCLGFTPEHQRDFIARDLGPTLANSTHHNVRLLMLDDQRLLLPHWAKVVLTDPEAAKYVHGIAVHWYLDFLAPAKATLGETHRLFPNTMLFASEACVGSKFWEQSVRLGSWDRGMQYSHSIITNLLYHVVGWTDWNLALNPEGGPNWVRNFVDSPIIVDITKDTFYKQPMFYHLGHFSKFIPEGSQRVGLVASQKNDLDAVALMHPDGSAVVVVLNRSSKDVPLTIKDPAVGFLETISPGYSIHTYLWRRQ
Assay: in vitro enzyme inhibition assay with recombinant GC
Format: biochemical

With `O=C1CN(/N=C/c2ccc(-c3ccc([N+](=O)[O-])cc3)o2)C(O)=N1` [compound 3, dantrolene] as the compound, how does the IC50 read?
The IC50 was about 90 µM.
